These results are taken from PubChem BioAssay (NCI).

Values joined by “and” are separate entries in the source; they are usually repeats but may differ in a detail not shown here. Equal values may be shown once.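 Results reflect a 48-hour exposure of cells in 96-well plates to compound at five concentrations. GI50: concentration for 50% inhibition of growth. The concentration for full growth arrest is given as TGI.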 Where only a bound is given, the exact number is not on record here.

As a reminder, the TGI is the concentration giving total growth inhibition. Read a high TGI as lower sensitivity of the cells. The term GI50 denotes the concentration giving 50% growth inhibition.

Holding throughout (experiment): DTP human tumour cell line panel, 48 h
In assay [1] the test system is CAKI-1 renal.
For assay [2], the system named is SW-620 colon.
Assay [3] deals with SF-268 CNS.
The test system of assay [4] is U251 CNS.
For assay [5], the system named is UACC-257 melanoma.
Assay [6] has as its system OVCAR-4 ovarian.
In assay [7] the test system is MOLT-4 leukemia.
Assay [8] deals with SK-MEL-5 melanoma.
Assay [9] concerns HOP-62 NSCLC.
Assay [10] relates to HCC-2998 colon.

As for `O=C(NCCCCCCCCNC(=O)c1cnc2ccccc2n1)c1cnc2ccccc2n1`, the TGI in [1], in assay [2], in [3], in [4], in [5] and in [6] was more than 100 µM in each case. Besides, the TGI in assay [7], in [8] and in [9] was more than 100 µM throughout.

Regarding `CC(C)(C)OC(=O)NCCNC1=CC(=O)c2nc3ccccc3c3ccnc1c23`, the GI50 in [1] is 28.4 µM; in [2] it was 15.1 µM; in [3], 18.7 µM; in assay [4], 18.8 µM; in assay [5], 23.5 µM; in assay [6], 24.3 µM. The GI50 in assay [8] was 11.1 µM; in assay [9] it was 24.4 µM. The TGI in [1] turned out to be 72.3 µM; in assay [2], 37.4 µM; in [3] it was 77.1 µM; in assay [4] it was 65 µM; in assay [5], 75.5 µM; in assay [6] it was 67.6 µM. Also, the figures for the TGI in assay [8] and in assay [9] were 23.1 µM and more than 100 µM, respectively.

With `CCC(C)CN1C(=O)NC(C)(Cc2ccccc2)C1=O` (centres undefined), the TGI in assay [10], in assay [1], in assay [2], in assay [3], in [4] and in [5] was more than 100 µM each time. In addition, the TGI in [8] and in assay [9] was more than 100 µM throughout.

For the compound `O=C(Nc1ccc(Cl)cc1Cl)c1ccc(NC2=C(Cl)C(=O)N(Cc3ccccc3)C2=O)cc1`, the GI50 in assay [1] was 26.4 µM; in assay [2], 34 µM; in [3] it was 16.5 µM; in [4], 12.2 µM; in assay [5] it was 26.2 µM; in assay [7], 3.57 µM. The GI50 in assay [8] is 20.6 µM; in assay [9], 20.2 µM. The TGI is 63.5 µM in assay [1]; more than 100 µM in assay [2]; 36.6 µM in assay [3]; 24.5 µM in assay [4]; 71.8 µM in assay [5]; 11.3 µM in assay [7]. In addition, the TGI was 65.8 µM in assay [8] and 40.5 µM in [9].

`Cc1ccc(C(=O)O/N=C2/CCCC/C2=C\c2ccccc2)cc1`: the concentration for total growth inhibition (TGI) was more than 100 µM in assay [10]; more than 100 µM in assay [1]; more than 100 µM in assay [2]; 28.2 µM in assay [3]; more than 100 µM in [4]; more than 100 µM in assay [5]. For the same compound, the TGI in assay [6], in assay [8] and in assay [9] was more than 100 µM in each case.

As for `CC1[C@@H]2[C@@H](C=C3C4CCC5Cc6nc7c(nc6C[C@@]5(C)C4C[C@H](O)[C@]32CO)CC2CCC3C4=C[C@H]5O[C@@]6(O[C@@](C)(CO)C[C@@H]6O)C(C)[C@@]5(O)[C@]4(C)[C@@H](O)CC3[C@]2(C)C7)O[C@]12CCC(C)(C)O2` (some centres undefined), the GI50 in assay [10] is 1.34 µM; in [1], 0.0406 µM; in assay [2] it was 0.0079 µM; in [3], 0.00304 µM; in [4] it was less than 0.000365 µM; in assay [8] it was 0.00864 µM. The GI50 in assay [9] is less than 0.000365 µM. For the same compound, the TGI is 0.39 µM and > 3.65 µM in assay [10]; more than 3.65 µM in [1]; 0.175 µM and 0.0892 µM in assay [2]; 0.945 µM and 0.0972 µM in assay [3]; 0.0664 µM in assay [4]; 0.305 µM and 0.392 µM in assay [5]. Also, the TGI is 0.0161 µM in assay [7]; 0.134 µM and 0.16 µM in assay [8].

For `O=[As](O)(O)c1ccc(NCc2ccccc2)cc1`, the total growth inhibition concentration (TGI) in assay [1], in [3], in assay [4], in assay [5], in assay [6] and in [7] was more than 100 µM each time. Besides, the TGI in assay [8] and in [9] was more than 100 µM in each case.

On to `COc1cc(CCc2cccnc2)cc(OC)c1OC`, for which the TGI in [1], in [2], in [3], in assay [4], in [5] and in assay [6] was more than 100 µM in each case. The TGI in assay [7], in [8] and in assay [9] was more than 100 µM throughout.

On to `N=C(c1ccccc1)N(c1ccccc1)c1ccccc1`, for which the TGI in assay [10], in [1], in assay [2], in assay [3], in assay [4] and in [5] was more than 100 µM in each case. The TGI in assay [6] and in assay [9] was more than 100 µM in each case.

For the compound `COc1cc(-c2nn3c(/C=C4/C(=O)Nc5ccccc54)c(-c4ccc(C)cc4)nc3s2)cc(OC)c1OC`, the GI50 in [10] is more than 100 µM; in [1], 15.4 µM; in assay [3], 3.62 µM; in [4] it was 1.59 µM; in [9], 4.14 µM. Further, the TGI in [10] was more than 100 µM; in assay [1], more than 100 µM; in assay [3] it was more than 100 µM; in [4] it was 3.43 µM; in assay [9], 23.3 µM.

Consider `NS(=O)(=O)c1ccc(NC(=O)c2ccc(NC3=C(Cl)C(=O)N(Cc4ccccc4)C3=O)cc2)cc1`, for which the GI50 in [1] was 14.8 µM; in assay [2] it was 2.69 µM; in assay [3] it was 7.25 µM; in assay [4], 5.37 µM; in assay [5] it was 18.2 µM; in [6], 13.7 µM. Also, the GI50 was 10.9 µM in assay [8] and 10.4 µM in assay [9]. The total growth inhibition concentration (TGI) in [1] is 29.3 µM; in assay [2] it was 7.78 µM; in assay [3] it was more than 100 µM; in assay [4] it was 24.7 µM; in [5] it was 56.7 µM; in [6] it was more than 100 µM. Also, the TGI was found to be 24.1 µM in [8] and 22.1 µM in assay [9].

Regarding `COc1cc2c(/C=N\N=C(N)N)c(Cl)[nH]c2cc1C`, the GI50 was 2.5 µM in [10]; 17 µM in assay [1]; 14.7 µM in assay [2]; 15.2 µM in assay [3]; 4.62 µM in assay [4]; 16.5 µM in assay [5]. In addition, the GI50 in assay [7] is 2.82 µM; in assay [8], 5.08 µM. The total growth inhibition concentration (TGI) in assay [10] turned out to be 5.67 µM; in assay [1] it was 32.7 µM; in assay [2] it was 30.7 µM; in assay [3] it was 40.7 µM; in assay [4] it was 17.7 µM; in assay [5], 32.5 µM. Besides, the total growth inhibition concentration (TGI) worked out at 7.41 µM in assay [7] and 19 µM in assay [8].

For the compound `Cc1ccc(C)c(NC(=O)C(=O)CC(=O)C2CCOC2=O)c1` (centres undefined), the concentration for total growth inhibition (TGI) in assay [1], in assay [2], in assay [3], in assay [4], in [5] and in assay [6] was more than 100 µM throughout. For the same compound, the TGI in [8] and in [9] was more than 100 µM in each case.

Take `CCSc1nnc2c(-c3ccccc3)n[nH]c2n1`: the TGI in assay [1], in [2], in assay [3], in assay [4], in assay [5] and in assay [6] was more than 100 µM each time. The TGI in assay [7], in assay [8] and in assay [9] was more than 100 µM in each case.

For the compound `Cc1cccc(C(=O)c2cccc3ccccc23)c1C(=O)O`, the TGI in assay [2], in [3], in assay [4], in assay [5], in assay [6] and in assay [7] was more than 100 µM each time. Besides, the TGI in assay [8] and in assay [9] was more than 100 µM each time.

In the case of `CC1=NN(C(=O)c2ccccc2O)C(=O)/C1=C/c1ccc([N+](=O)[O-])cc1`, the GI50 in assay [1] is 0.549 µM; in assay [2], 3.15 µM; in assay [3] it was 0.444 µM; in [4], 0.516 µM; in [5] it was 2.34 µM; in assay [6], 0.783 µM. Further, the GI50 in [7] is 0.35 µM; in assay [8], 2.21 µM. In addition, the TGI is more than 30.8 µM in [1]; more than 100 µM in assay [2]; more than 100 µM in [3]; more than 100 µM in assay [4]; more than 100 µM in assay [5]; more than 100 µM in assay [6]. Moreover, the concentration for total growth inhibition (TGI) in assay [7] is more than 100 µM; in [8] it was 51.5 µM.

Regarding `Nc1ncnc2c1ncn2C1OC(COP(=O)(O)CP(=O)(O)O)C(O)C1O` (centres undefined), the TGI in assay [10], in assay [1], in assay [2], in [3], in assay [4] and in assay [5] was more than 100 µM each time. Moreover, the TGI in assay [7], in [8] and in assay [9] was more than 100 µM each time.

For `O=C(O)CSCc1cccc2ccccc12`, the TGI in assay [1], in assay [2], in assay [3], in [4], in assay [5] and in assay [6] was more than 100 µM each time. For the same compound, the TGI in assay [7], in [8] and in [9] was more than 100 µM each time.

Regarding `O=C1c2ccccc2C2(O)Nc3cc(O)ccc3C12O` (centres undefined), the TGI in [1], in assay [2], in assay [3], in assay [4], in [6] and in [7] was more than 100 µM in each case. For the same compound, the TGI in [8] and in [9] was more than 100 µM each time.

Turning to `C#CCC[C@@H]1O[C@@]1(C)CC/C=C(\C)CC/C=C/C=O`, the TGI is 51.4 µM in [2]; 56.3 µM in [3]; 39.3 µM in [4]; 69.7 µM in assay [5]; 52.9 µM in assay [7]; more than 100 µM in [9].

Take `O=C1OC(=O)c2c1c(-c1ccccc1)cn2-c1ccc(Cl)cc1`: the TGI in assay [10], in [2], in assay [3], in assay [4], in assay [5] and in [7] was more than 100 µM in each case. For the same compound, the values for the TGI in [8] and in [9] were 27.9 µM and more than 100 µM, respectively.

Take `c1ccc(SC2(Sc3ccccc3)CCCC2)cc1`: the TGI in assay [1], in assay [2], in [3], in [4], in assay [5] and in assay [6] was more than 100 µM each time. In addition, the TGI in [7], in [8] and in assay [9] was more than 100 µM each time.

Take `COc1cc2c(cc1O)C=NCC2`: the TGI in assay [1], in assay [2], in [3], in assay [4], in [5] and in [6] was more than 100 µM in each case. The TGI in [7] and in assay [8] was more than 100 µM throughout.

In the case of `NNC(=S)N/N=C(\CCCC(=O)NCCc1ccccc1)CC(=O)c1ccccc1`, the TGI in assay [10], in assay [2], in assay [3], in assay [4], in [5] and in [6] was more than 100 µM each time. The TGI in [8] and in [9] was more than 100 µM in each case.

Regarding `COc1cc(C(=O)OCCCCCCCCCCC[P+](c2ccccc2)(c2ccccc2)c2ccccc2)ccc1O`, the GI50 is 0.57 µM in assay [10], 1.64 µM in [1], 0.451 µM in [5] and 0.557 µM in assay [7]. For the same compound, the total growth inhibition concentration (TGI) amounted to 1.92 µM in [10], 3.18 µM in [1], 1.54 µM in assay [5] and 4.31 µM in assay [7].

For `O=C(O)CN(c1ccccc1)S(=O)(=O)c1ccc(NC(=O)c2ccccc2)cc1`, the TGI in [1], in assay [2], in assay [3], in assay [4], in assay [5] and in [6] was more than 100 µM in each case. In assay [7], this compound showed a TGI of more than 100 µM.

`COc1ccc(S(=O)(=O)NC(C)C(=O)O)cc1` (centres undefined): the TGI in assay [1], in [2], in [3], in [4], in assay [5] and in assay [6] was more than 100 µM each time. Also, the TGI in assay [7] and in [8] was more than 100 µM in each case.
